Structures can show the parent of a compound that is named as a salt.
Assays:
[1] = tested on: shunt pathway activated by cobra venom factor; experiment: Test Code 036 (C-Shunt inhibitor); assay type: cell-based, human; conditions: serial dilution assay, twofold dilutions; higher well number indicates higher activity; N = Negative
Description: (§1) An active inhibitor protects C2 from C1 and C4; (ii) Test Code 035 (C3-C9 inhibitor)--This test determines the ability of the late components of human complement (C3-C9) to lyse EAC 142 in the presence of appropriate dilutions of the test compound. An active inhibitor protects EAC 142 from lysis by human C3-C9; (iii) Test Code 036 (C-Shunt inhibitor)--In this test human erythrocytes rendered fragile are lysed in autologous serum via the shunt pathway activated by cobra venom factor in the presence of appropriate dilutions of the test compound. Inhibition of the shunt pathway results in failure of lysis; (iv) Cap 50 Test--Here, appropriate amounts of the test compound are added to a pool of guinea pig serum in vitro, after which the undiluted serum capillary tube assay of U.S. Pat. No. 3,876,376 is run. The concentration of compound inhibiting 50% is reported; and (v) Guinea Pig Intraperitoneal Test (GPIP)--Guinea pigs weighing about 300 g are dosed intraperitoneally (i.p.) with 200 mg/kg of the test compound dissolved in saline and adjusted to pH 7-8. Approximately 0.4 ml blood samples, taken by orbital sinus puncture 30 minutes and one hour after injections, are collected directly into centrifuge tubes; 5 ml blood samples, taken by decapitation 2 hours after injection are collected directly into beakers. The samples are allowed to clot, centrifuged, and the resultant sera are assayed for complement activity using the capillary complement assay. Percent inhibition is calculated by comparison with simultaneous controls. The results of the GPIP appear in Table I together with results of test code 026, 035, 036 and Cap 50.

[2] = target: activated human C1 (Homo sapiens, UniProt P09871); experiment: Test Code 026 (C1 inhibitor); assay type: biochemical; conditions: serial dilution assay, twofold dilutions; higher well number indicates higher activity
Description: as §1

[3] = tested on: late components of human complement (C3-C9); experiment: Test Code 035 (C3-C9 inhibitor); assay type: biochemical; conditions: serial dilution assay, twofold dilutions; higher well number indicates higher activity; N = Negative
Description: as §1

SMILES	C-Shunt Inhibition 036 Wells [1]	Cl 026 Wells [2]	C-Late 035 Wells [3]
O=S(=O)(O)OC[C@H]1O[C@@H](OC[C@H]2O[C@H](O[C@H]3O[C@H](CO[C@@H]4O[C@H](COS(=O)(=O)O)[C@H](OS(=O)(=O)O)[C@H](OS(=O)(=O)O)[C@H]4OS(=O)(=O)O)[C@@H](OS(=O)(=O)O)[C@H](OS(=O)(=O)O)[C@H]3OS(=O)(=O)O)[C@H](OS(=O)(=O)O)[C@@H](OS(=O)(=O)O)[C@@H]2OS(=O)(=O)O)[C@H](OS(=O)(=O)O)[C@@H](OS(=O)(=O)O)[C@H]1OS(=O)(=O)O [drawing 11, Gal 1β,6 glc 1α,1α' glc 1β,6 gal, tetradecakis (H-sulfate), tetradecasalt with trimethylamine]	5 Wells	9 Wells	–
O=S(=O)(O)OC[C@H]1O[C@@H](OC[C@H]2O[C@H](O[C@H]3O[C@H](CO[C@@H]4O[C@H](COS(=O)(=O)O)[C@H](OS(=O)(=O)O)[C@H](OS(=O)(=O)O)[C@H]4OS(=O)(=O)O)[C@@H](OS(=O)(=O)O)[C@H](OS(=O)(=O)O)[C@H]3OS(=O)(=O)O)[C@H](OS(=O)(=O)O)[C@@H](OS(=O)(=O)O)[C@@H]2OS(=O)(=O)O)[C@H](OS(=O)(=O)O)[C@@H](OS(=O)(=O)O)[C@H]1OS(=O)(=O)O [drawing 12, Gal 1β,6 glc 1α,1α' glc 1β,6 gal, tetradecakis (H-sulfate), tetradecasodium salt]	6 Wells	9 Wells	–
O=S(=O)(O)O[C@@H]1[C@@H](OS(=O)(=O)O)[C@@H](O[C@H]2O[C@H](CO[C@@H]3OC[C@@H](OS(=O)(=O)O)[C@H](OS(=O)(=O)O)[C@H]3OS(=O)(=O)O)[C@@H](OS(=O)(=O)O)[C@H](OS(=O)(=O)O)[C@H]2OS(=O)(=O)O)O[C@H](CO[C@@H]2OC[C@@H](OS(=O)(=O)O)[C@H](OS(=O)(=O)O)[C@H]2OS(=O)(=O)O)[C@H]1OS(=O)(=O)O [drawing 13, Xyl 1β,6 glc 1α,1α' glc 1β,6 xyl, dodecakis (H-sulfate), dodecasalt with trimethylamine]	3 Wells	10 Wells	–
O=S(=O)(O)OC[C@H]1O[C@@H](OC[C@H]2O[C@H](O[C@H]3O[C@H](CO[C@@H]4O[C@H](COS(=O)(=O)O)[C@@H](O[C@H]5O[C@H](COS(=O)(=O)O)[C@@H](OS(=O)(=O)O)[C@H](OS(=O)(=O)O)[C@H]5OS(=O)(=O)O)[C@H](OS(=O)(=O)O)[C@H]4OS(=O)(=O)O)[C@@H](OS(=O)(=O)O)[C@H](OS(=O)(=O)O)[C@H]3OS(=O)(=O)O)[C@H](OS(=O)(=O)O)[C@@H](OS(=O)(=O)O)[C@@H]2OS(=O)(=O)O)[C@H](OS(=O)(=O)O)[C@@H](OS(=O)(=O)O)[C@@H]1O[C@H]1O[C@H](COS(=O)(=O)O)[C@@H](OS(=O)(=O)O)[C@H](OS(=O)(=O)O)[C@H]1OS(=O)(=O)O [drawing 15, Glc 1α,4 glc 1β,6 glc 1α,1α' glc 1β,6 glc 1α,4 glc, eicosakis (H-sulfate), eicosasalt with trimethylamine]	N	5 Wells	N
O=S(=O)(O)OC[C@H]1O[C@@H](OC[C@H]2O[C@H](O[C@H]3O[C@H](CO[C@@H]4O[C@H](COS(=O)(=O)O)[C@@H](O[C@H]5O[C@H](COS(=O)(=O)O)[C@@H](OS(=O)(=O)O)[C@H](OS(=O)(=O)O)[C@H]5OS(=O)(=O)O)[C@H](OS(=O)(=O)O)[C@H]4OS(=O)(=O)O)[C@@H](OS(=O)(=O)O)[C@H](OS(=O)(=O)O)[C@H]3OS(=O)(=O)O)[C@H](OS(=O)(=O)O)[C@@H](OS(=O)(=O)O)[C@@H]2OS(=O)(=O)O)[C@H](OS(=O)(=O)O)[C@@H](OS(=O)(=O)O)[C@@H]1O[C@H]1O[C@H](COS(=O)(=O)O)[C@@H](OS(=O)(=O)O)[C@H](OS(=O)(=O)O)[C@H]1OS(=O)(=O)O [drawing 16, Glc 1α,4 glc 1β,6 glc 1α,1α' glc 1β,6 glc 1α,4 glc, eicosakis (H-sulfate), eicosasodium salt]	6 Wells	10 Wells	N
O=S(=O)(O)OC[C@H]1O[C@@H](OC[C@H]2O[C@H](O[C@H]3O[C@H](CO[C@@H]4O[C@H](COS(=O)(=O)O)[C@@H](O[C@H]5O[C@H](COS(=O)(=O)O)[C@@H](O[C@H]6O[C@H](COS(=O)(=O)O)[C@@H](OS(=O)(=O)O)[C@H](OS(=O)(=O)O)[C@H]6OS(=O)(=O)O)[C@H](OS(=O)(=O)O)[C@H]5OS(=O)(=O)O)[C@H](OS(=O)(=O)O)[C@H]4OS(=O)(=O)O)[C@@H](OS(=O)(=O)O)[C@H](OS(=O)(=O)O)[C@H]3OS(=O)(=O)O)[C@H](OS(=O)(=O)O)[C@@H](OS(=O)(=O)O)[C@@H]2OS(=O)(=O)O)[C@H](OS(=O)(=O)O)[C@@H](OS(=O)(=O)O)[C@@H]1O[C@H]1O[C@H](COS(=O)(=O)O)[C@@H](O[C@H]2O[C@H](COS(=O)(=O)O)[C@@H](OS(=O)(=O)O)[C@H](OS(=O)(=O)O)[C@H]2OS(=O)(=O)O)[C@H](OS(=O)(=O)O)[C@H]1OS(=O)(=O)O [drawing 17, Glc 1α,4 glc 1α,4 glc 1β,6 glc 1α,1α' glc 1β,6 glc 1α,4 glc 1α,4 glc, hexacosakis (H-sulfate), hexacosasalt with trimethylamine]	6 Wells	9 Wells	1 Wells
O=S(=O)(O)OC[C@H]1O[C@@H](OC[C@H]2O[C@H](O[C@H]3O[C@H](CO[C@@H]4O[C@H](COS(=O)(=O)O)[C@@H](O[C@H]5O[C@H](COS(=O)(=O)O)[C@@H](O[C@H]6O[C@H](COS(=O)(=O)O)[C@@H](OS(=O)(=O)O)[C@H](OS(=O)(=O)O)[C@H]6OS(=O)(=O)O)[C@H](OS(=O)(=O)O)[C@H]5OS(=O)(=O)O)[C@H](OS(=O)(=O)O)[C@H]4OS(=O)(=O)O)[C@@H](OS(=O)(=O)O)[C@H](OS(=O)(=O)O)[C@H]3OS(=O)(=O)O)[C@H](OS(=O)(=O)O)[C@@H](OS(=O)(=O)O)[C@@H]2OS(=O)(=O)O)[C@H](OS(=O)(=O)O)[C@@H](OS(=O)(=O)O)[C@@H]1O[C@H]1O[C@H](COS(=O)(=O)O)[C@@H](O[C@H]2O[C@H](COS(=O)(=O)O)[C@@H](OS(=O)(=O)O)[C@H](OS(=O)(=O)O)[C@H]2OS(=O)(=O)O)[C@H](OS(=O)(=O)O)[C@H]1OS(=O)(=O)O [drawing 19, Glc 1α,4 glc 1α,4 glc 1β,6 glc 1α,1α' glc 1β,6 glc 1α,4 glc 1α,4 glc, hexacosakis (H-sulfate), hexacosasodium salt]	6 Wells	9 Wells	1 Wells
O=S(=O)(O)OC[C@H]1O[C@@H](OC[C@H]2O[C@H](O[C@H]3O[C@H](CO[C@@H]4O[C@H](COS(=O)(=O)O)[C@@H](O[C@H]5O[C@H](COS(=O)(=O)O)[C@@H](O[C@H]6O[C@H](COS(=O)(=O)O)[C@@H](O[C@H]7O[C@H](COS(=O)(=O)O)[C@@H](O[C@H]8O[C@H](COS(=O)(=O)O)[C@@H](O[C@H]9O[C@H](COS(=O)(=O)O)[C@@H](O[C@H]%10O[C@H](COS(=O)(=O)O)[C@@H](OS(=O)(=O)O)[C@H](OS(=O)(=O)O)[C@H]%10OS(=O)(=O)O)[C@H](OS(=O)(=O)O)[C@H]9OS(=O)(=O)O)[C@H](OS(=O)(=O)O)[C@H]8OS(=O)(=O)O)[C@H](OS(=O)(=O)O)[C@H]7OS(=O)(=O)O)[C@H](OS(=O)(=O)O)[C@H]6OS(=O)(=O)O)[C@H](OS(=O)(=O)O)[C@H]5OS(=O)(=O)O)[C@H](OS(=O)(=O)O)[C@H]4OS(=O)(=O)O)[C@@H](OS(=O)(=O)O)[C@H](OS(=O)(=O)O)[C@H]3OS(=O)(=O)O)[C@H](OS(=O)(=O)O)[C@@H](OS(=O)(=O)O)[C@@H]2OS(=O)(=O)O)[C@H](OS(=O)(=O)O)[C@@H](OS(=O)(=O)O)[C@@H]1O[C@H]1O[C@H](COS(=O)(=O)O)[C@@H](O[C@H]2O[C@H](COS(=O)(=O)O)[C@@H](O[C@H]3O[C@H](COS(=O)(=O)O)[C@@H](O[C@H]4O[C@H](COS(=O)(=O)O)[C@@H](O[C@H]5O[C@H](COS(=O)(=O)O)[C@@H](O[C@H]6O[C@H](COS(=O)(=O)O)[C@@H](OS(=O)(=O)O)[C@H](OS(=O)(=O)O)[C@H]6OS(=O)(=O)O)[C@H](OS(=O)(=O)O)[C@H]5OS(=O)(=O)O)[C@H](OS(=O)(=O)O)[C@H]4OS(=O)(=O)O)[C@H](OS(=O)(=O)O)[C@H]3OS(=O)(=O)O)[C@H](OS(=O)(=O)O)[C@H]2OS(=O)(=O)O)[C@H](OS(=O)(=O)O)[C@H]1OS(=O)(=O)O [drawing 21, Glc 1α,4 (glc 1α,4)5 glc 1β,6 glc 1α,1α'glc 1β,6 glc (glc 1α,4)5 1α,4 glc, pentacontakis (H-sulfate), pentacontasalt with trimethylamine]	5 Wells	10 Wells	N
